Data taken from PubChem BioAssay (NCI).
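Each compound was tested at five concentrations against cells in 96-well plates for 48 hours. GI50 is the concentration that inhibits growth by half. TGI: concentration producing complete growth inhibition.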

Tests used:
Experiment in all cases: NCI-60 cell line screen, 48 h
HL-60(TB) leukemia = system: HL-60(TB) leukemia
NCI-H226 lung = system: NCI-H226 lung
EKVX NSCLC = system: EKVX NSCLC
RPMI-8226 leukemia = system: RPMI-8226 leukemia
SK-OV-3 ovarian = system: SK-OV-3 ovarian
HT29 colon = system: HT29 colon
NCI-H23 lung = system: NCI-H23 lung
OVCAR-3 ovarian = system: OVCAR-3 ovarian
CAKI-1 renal = system: CAKI-1 renal
SF-295 CNS = system: SF-295 CNS
UACC-257 melanoma = system: UACC-257 melanoma
SNB-19 CNS = system: SNB-19 CNS
MDA-MB-435 = system: MDA-MB-435
OVCAR-5 ovarian = system: OVCAR-5 ovarian
SNB-75 CNS = system: SNB-75 CNS
A498 renal = system: A498 renal
MALME-3M melanoma = system: MALME-3M melanoma
NCI-H460 lung = system: NCI-H460 lung
HS 578T breast = system: HS 578T breast
MDA-MB-231 breast = system: MDA-MB-231 breast
SW-620 colon = system: SW-620 colon
NCI/ADR-RES ovarian = system: NCI/ADR-RES ovarian
SR leukemia = system: SR leukemia
786-0 renal = system: 786-0 renal
SK-MEL-28 melanoma = system: SK-MEL-28 melanoma
HOP-62 NSCLC = system: HOP-62 NSCLC
MOLT-4 leukemia = system: MOLT-4 leukemia

O=C(COc1ccc(/C=C2\COc3ccccc3C2=O)cc1)Nc1nccs1
GI50 (HL-60(TB) leukemia): 1.68 µM
TGI (HL-60(TB) leukemia): 3.48 µM
GI50 (NCI-H226 lung): 14.4 µM
TGI (NCI-H226 lung): 29.9 µM
GI50 (EKVX NSCLC): 22.4 µM
TGI (EKVX NSCLC): 76.3 µM
GI50 (RPMI-8226 leukemia): 2.25 µM
TGI (RPMI-8226 leukemia): 6.28 µM
GI50 (SK-OV-3 ovarian): 30.9 µM
TGI (SK-OV-3 ovarian): 69.5 µM
GI50 (HT29 colon): 3.7 µM
TGI (HT29 colon): 12.9 µM
GI50 (NCI-H23 lung): 11.2 µM
TGI (NCI-H23 lung): 25.4 µM
GI50 (OVCAR-3 ovarian): 2.73 µM
TGI (OVCAR-3 ovarian): 5.81 µM
GI50 (CAKI-1 renal): 7.55 µM
TGI (CAKI-1 renal): 20.7 µM
GI50 (SF-295 CNS): 3.1 µM
TGI (SF-295 CNS): 12.8 µM
GI50 (UACC-257 melanoma): 13.3 µM
TGI (UACC-257 melanoma): 30.6 µM
GI50 (SNB-19 CNS): 12.8 µM
TGI (SNB-19 CNS): 25.4 µM
GI50 (MDA-MB-435): 3.56 µM
TGI (MDA-MB-435): 18.4 µM
GI50 (OVCAR-5 ovarian): 16.7 µM
TGI (OVCAR-5 ovarian): 32.9 µM
GI50 (SNB-75 CNS): 5.04 µM
TGI (SNB-75 CNS): 22 µM
GI50 (A498 renal): 19.3 µM
TGI (A498 renal): 33.7 µM
GI50 (MALME-3M melanoma): 16.3 µM
TGI (MALME-3M melanoma): 36.2 µM
GI50 (NCI-H460 lung): 18.6 µM
TGI (NCI-H460 lung): 64.6 µM
GI50 (HS 578T breast): 2.74 µM
TGI (HS 578T breast): 9.4 µM
GI50 (MDA-MB-231 breast): 17.8 µM
TGI (MDA-MB-231 breast): 60 µM
GI50 (SW-620 colon): 3.22 µM
TGI (SW-620 colon): 10.2 µM
GI50 (NCI/ADR-RES ovarian): 24.7 µM
TGI (NCI/ADR-RES ovarian): > 100 µM
GI50 (SR leukemia): 1.31 µM
TGI (SR leukemia): 3.23 µM
GI50 (786-0 renal): 13.9 µM
TGI (786-0 renal): 28.1 µM
GI50 (SK-MEL-28 melanoma): 13.2 µM
TGI (SK-MEL-28 melanoma): 26.1 µM
GI50 (HOP-62 NSCLC): 16.8 µM
TGI (HOP-62 NSCLC): 33.1 µM
GI50 (MOLT-4 leukemia): 1.6 µM
TGI (MOLT-4 leukemia): 3.76 µM
